Experimental data from patent publication US7833795B2, “Assessment of cardiovascular risk using isoprostane biomarkers and COX-2 selective inhibitors” (The Trustees of the University of Pennsylvania, priority 2004, dated 2010).
Like-named read-outs stand apart in the source and are kept apart here.

How the values were obtained:
[1] = Case study of short term valdecoxib use; assay type: in vivo, human; details: valdecoxib 20 mg b.i.d. Person on oral contraceptive
Procedure: A ventilation-perfusion scan (VQ scan) was performed according to typical hospital procedure. Inhalation of 20.1 millicurie (mCi) of Xenon-133 gas was used for the ventilation scan. Intravenous injection of 4.1 mCi of Tc-99m-labelled MAA was used for the perfusion scan.
A person presented with pulmonary embolism. They had been taking, without complication, Ortho-Tricyclen® (0.180, 0.215, and 0.250 mg norgestimate cycles; 35 microgram (μg) ethinyl estradiol) for two years and Ortho Tri-cyclen® LO (same norgestimate; 25 μg ethinyl estradiol) for 14 months. A non-smoker, they lacked a relevant family history and was vigorously athletic.
One month prior to presentation, they developed neck pain. Disc protrusion at C5-C6 was detected by magnetic resonance imaging (MRI). The patient was prescribed valdecoxib 20 mg b.i.d. for two weeks. Their neck pain resolved. However, towards the end of this two-week treatment period, they developed left-sided pleuritic chest and shoulder pain after a 6 hour car ride. They were commenced on cyclobenzaprine 10 mg b.i.d. and continued on valdecoxib. Their left-sided pain abated gradually. However, 18 days later, they developed right-sided chest and shoulder pain. […]

[2] = small, short-term studies of cardiopulmonary bypass grafting; cited from earlier work
[3] = system: mouse aortic smooth muscle cells (MASMC); test: H2O2-induced 8,12-iso-iPF2α-VI generation in MASMC; assay type: cell-based
Procedure: (§1) Mouse aortic smooth muscle cells (MASMCs): Primary aortic smooth muscle cells were prepared. […] Cells were cultured in Dulbecco's Modified Eagles medium (DMEM)/Ham's F12 (50/50) (Gibco BRL, Grand Island, N.Y.; with 15 mM HEPES and 2 mM glutamine) supplemented with 20% fetal bovine serum. Cells were routinely passaged using 0.05% trypsin/0.53 mM EDTA, seeded onto six well plates and used at 80-90% confluence, between passages five to nine.
Cicaprost (100 nM, Schering A G, Berlin, Germany by agreement) was added to MASMC medium just prior to addition of H2O2.
Short term treatment with E2: Cells were washed twice rinsing with RPMI serum free medium and then pre-incubated in 1 ml RPMI serum free medium for 1 hour. […] .
The 8,12-iso-iPF2α-VI was analyzed in 1 ml conditioned medium, adjusted to pH 3, using the same method described for urine samples.

heme oxygenase 1 (HO 1) = test: Heme oxygenase 1 Western blotting in MASMC; assay type: cell-based, mouse; details: 100 nM cicaprost, 8 hours, IP-dependent
Procedure: as §1
Heme oxygenase 1 (HO 1) Western Blotting: A polyclonal rabbit anti-heme oxygenase 1 (HO 1, ˜32 kDa) was purchased from Stressgen Biotechnologies, Victoria, BC, Canada. MASMCs were treated with 100 nM cicaprost for 8 hours in RPMI vehicle at 37° C. Control cells were treated with vehicle for the same time period. […] Protein isolated from aortae of high fat fed mice was quantitated by the BioRad DC assay for Western Blotting.

IP [4] = biological target: T1, IP (Mus musculus, UniProt P43252); test: Direct measurement of blood pressure after cicaprost; assay type: in vivo; details: cicaprost 1 μg/kg iv
T1 construct: from tissue; host or cells: live anesthetized mice (WT, IP+/- and IP-/- littermates, C57BL/6 background); vasculature
Description: (§2) IPKO and mPGES-1 KO mice: IPKO mice were backcrossed into a C57BL/6 genetic background (Cheng et al., 2002, Science 296: 539). IP^−/−, IP^+/−, and WT littermates were identified in litters generated by the intercross of IP^+/− animals by polymerase chain reaction analysis (PCR) of genomic DNA isolated from tail biopsy samples. Southern blot analysis confirmed the IP gene copy number. mPGES-1 KO mice were kindly provided by Pfizer Inc (New York, N.Y.). They were generated and maintained on the DBA/1 lacJ genetic background (Trebino et al., 2003, Proc. Natl. Acad. Sci. U.S.A. 100: 9044). Heterozygous animals were intercrossed, and the litters were screened by PCR analysis to identify both mPGES-1 KO and wild-type controls. Biochemical and functional analyses in each case were performed on mutant mice and WT littermate controls.
(§3) (iii) Direct measurement of blood pressure: Mice were anesthetized (ketamine 100 mg/kg, acepromazine 5 mg/kg) and placed on a temperature-controlled panel. The right internal jugular vein and left carotid artery were cannulated with PE-10 tubing. The arterial catheter was connected to a Capto SP844 pressure transducer (Capto, Horten, Norway), and blood pressure (BP) was monitored continuously with a Powerlab/8SP system (AD Instruments Inc.), as previously described (Hui et al., 2004, Circulation 110:3360; Rocca et al., 2000, Nat. Med. 6:219). Blood pressure and heart rate were continuously monitored for 20-40 minutes until stable values were obtained. After the equilibration period and the baseline BP was recorded, mice were injected via the right internal jugular vein with cicaprost (1 ug/kg in 4 mL/kg saline) as a bolus, and the same volume of saline was injected before cicaprost administration to exclude volume-mediated BP changes. The BP was continuously recorded until it returned to pretreatment baseline.

IP [5] = test: as above; assay type: in vivo, mouse; details: cicaprost 1 μg/kg iv, IP−/−
Description: as §2, §3

IP [6] = test: Whole blood platelet aggregation assay; details: 10 nM cicaprost, collagen 2 μg/ml ex vivo
eicosanoid biosynthesis = test: Urinary eicosanoid analyses in mice; assay type: in vivo, mouse
Procedure: Mice: In all cases, transgenic mice deficient in the indicated gene were compared with appropriate strain-, age-, and sex-matched control animals. The investigator was unaware of the genotype throughout the experiment. All procedures were approved and animal husbandry was overseen by the Institutional Animal Care and Usage Committee of the University of Pennsylvania.
Eicosanoid analyses: Urinary 2,3-dinor TxB2 and 2,3-dinor 6-keto PGF1α were measured in twenty four hour urines collected in metabolic cages. After extraction and purification by thin layer chromatography, they were analyzed by gas chromatography/mass spectrometry, as previously described (Egan et al., 2005, Circulation 111:334). Urinary PGE-M was measured by LC/MS/MS as follows: First, 10 ng of hexadeuterated PGE-M (9,15-dioxo-11α-hydroxy-2,3,4,5-tetranor-prostan-1,20-dioic-17,17,18,18,19,19-d6 acid; Cayman Chemical Co., Ann Arbor, Mich.) was added to 0.1 ml of mouse urine. Next, 50 μL of methoxyamine HCl, 1 g/L, was added and the sample was mixed and allowed to stand at room temperature for 15 minutes. The sample was then diluted to 1.0 ml with water and extracted on a Strata™-X solid phase extraction (SPE) cartridge (Phenomenex Inc., Torrance, Calif.). The SPE was eluted with 1.0 mL of 5% acetonitrile in ethyl acetate, dried, dissolved in 200 μL 10% acetonitrile in water, and injected for LC/MS/MS analysis. Transitions monitored were m/z 385→336 for the endogenous PGE-M and 391→342 for the internal standard.

mice [7] = details: mouse, in vivo
Procedure: Briefly, mice (12→16 weeks) were anesthetized with sodium pentobarbital (80 mg/kg, intraperitoneally). Following a midline cervical incision, the left common carotid artery was isolated and a Doppler flow probe (Model 0.5 VB, Transonic Systems Co., Ithaca, N.Y.) was applied. The probe was connected to a flowmeter (Transonic Model T105) and interpreted with Powerlab® (AD Instruments, Colorado Springs, Colo.), a computerized data acquisition program. Rose Bengal (Fisher Scientific, Fair Lawn, N.J.) was diluted to phosphate-buffered saline and then injected into the jugular vein in a volume of 0.12 ml at a concentration of 50 mg/kg. Immediately prior to injection, a 1.5-mW green light laser (540 nm) (Melles Griot, Carlsbad, Calif.) was applied to the desired site of injury from a distance of 5 cm carotid artery; blood flow was monitored for 120 minutes or until stable occlusion occurred, after which the mice still showing blood flow were assigned a value of 120 minutes. Stable occlusion was defined as a blood flow of 0 ml/min for 3 minutes.

Male C57BL/6J mice [8] = system: Male C57BL/6J mice
Procedure: (§4) Animals: All animal studies were performed according to protocols approved by the Institutional Committee for Use and Care of Laboratory Animals. Male C57BL/6J mice, aged four to six weeks were used for the flow reduction models. The parental background strain of the male, four to six week old donor mice in the transplant studies was also C57BL/6J (H2b). The background of the recipient mice was C3H(H2k) (Taconic Farms Inc, Germantown, N.Y.).
Urine was collected over a 24 hour period in metabolic cages (Nalgene Labware, Deepwater, N.J.) with vehicle or nimesulide allowed ad libitum. Urinary levels of prostanoid metabolites were measured by stable isotope dilution methods as previously described. […] A urine aliquot (0.1 ml) was used for measurement of creatinine by an automated colorimetric assay (Sigma-Aldrich Co., St Louis, Mo.).
(§5) Briefly, the distal left common carotid artery (LC) artery and its bifurcation into the external and internal carotid were exposed using blunt dissection. 9-0 nylon sutures (USSC Sutures, Norwalk, Conn.) were used to ligate the EC artery, incisions were closed (7-0 polypropylene) and mice were left to recover. Severe reduction in flow was achieved by ligating the LC artery just proximal to the external/internal carotid artery bifurcation. Five μm cross sections were used from parallel regions of RC and LC that were isolated in 5 millimeter (mm) blocks proximal to the ligation, until reaching a parallel point at the RC artery branchpoint with the right subclavian artery. […] Mice that developed thrombosis were excluded from the analysis. […] Urine was collected from individual mice using metabolic cages at four weeks of age, and again after a four week period of treatment, subsequent to either moderate or severe flow reduction. Urine samples were frozen at −20° for analysis.

Male C57BL/6J mice [9] = details: nimesulide
Procedure: as §4, §5

Male C57BL/6J mice [10] = details: one week after LC ligation, severe flow reduction
Description: as §5

mice [11] = test: Tail cuff blood pressure measurement; assay type: in vivo, mouse; details: celecoxib treatment, regular chow diet
Procedure: (i) Tail Cuff measurement: Resting systolic blood was measured in conscious mice (3-4 months old) using a computerized noninvasive tail-cuff system (Visitech Systems, Apex, N.C.). […] Mice were adapted to the system for 14 days; measurements of sessions 25 minutes in length were done once each day between 15:00 and 18:00. After that, blood pressure was recorded daily for 3 consecutive days in the same way. Data were collected and analyzed using updated BP 2000 software (http://www(dot)visitechsystems(dot)com/).

[12] = nimesulide, severe flow reduction

T1 sequence (P43252 1-412 limits assumed): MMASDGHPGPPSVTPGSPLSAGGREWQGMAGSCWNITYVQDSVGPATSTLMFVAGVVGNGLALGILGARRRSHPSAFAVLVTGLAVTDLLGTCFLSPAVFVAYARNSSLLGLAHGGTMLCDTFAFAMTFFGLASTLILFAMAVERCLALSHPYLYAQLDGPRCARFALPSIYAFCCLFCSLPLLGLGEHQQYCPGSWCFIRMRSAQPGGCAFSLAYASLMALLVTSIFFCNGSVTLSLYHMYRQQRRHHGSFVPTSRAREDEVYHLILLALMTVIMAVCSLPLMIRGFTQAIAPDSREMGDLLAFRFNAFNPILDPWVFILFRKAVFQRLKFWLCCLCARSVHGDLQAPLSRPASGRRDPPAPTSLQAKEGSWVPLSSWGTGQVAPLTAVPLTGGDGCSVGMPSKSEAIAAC

Cc1onc(-c2ccccc2)c1-c1ccc(S(N)(=O)=O)cc1 [valdecoxib]
adverse event diagnosed in the patient [1]: left iliac vein thrombosis and bilateral pulmonary emboli | relative risk of heart attack and stroke [2]: three-fold increase

CCC#CC[C@H](C)[C@H](O)C#C[C@@H]1[C@H]2C/C(=C/COCC(=O)O)C[C@H]2C[C@H]1O [cicaprost]
response of MASMCs to H2O2, iP generation ([3]; cicaprost 100 nM, H2O2 100 μM 30 min): limits the response | iP generation from unstimulated cells ([3]; cicaprost, MASMC without H2O2): does not significantly reduce | HO 1 protein expression (heme oxygenase 1 (HO 1)): increased expression | duration of the depressor response (IP [4]; IP+/−): 5.3 ± 1.1 min | maximal decline in mean arterial pressure from pretreatment baseline (IP [4]; IP+/−): 24% | maximal decline in mean arterial pressure from pretreatment baseline (IP [4]; WT): 36±3.5% | duration of the depressor response (IP [4]; WTs): 10.8 ± 2.5 min | depressor response, MAP (IP [5]): no change in MAP | maximal decline in mean arterial pressure from pretreatment baseline (IP [5]): 0% | platelet aggregation readout, second value printed for IP+/− mice (IP [6]): 100% | inhibition of platelet aggregation, % of the maximal inhibition observed in WTs (IP [6]; IP+/− mice): 86.7%

CC1(C)OC(=O)C(c2cccc(F)c2)=C1c1ccc(S(C)(=O)=O)cc1 [DFU, 5,5-dimethyl-3-(3-fluorophenyl)-4-(4-methylsulphonyl)phenyl-2(5H)-furanone]
mean depression of urinary 2,3-dinor 6-keto PGF1α from pretreatment values (eicosanoid biosynthesis; DFU, WT mice): 71.2% | mean depression of urinary PGE-M from pretreatment values (eicosanoid biosynthesis; DFU, WT mice): 52.3% | urinary 2,3-dinor TxB2 vs pretreatment values (eicosanoid biosynthesis; DFU, WT mice): did not depress | urinary 2,3-dinor TxB2 (eicosanoid biosynthesis; DFU, WT mice, second value of the printed pair (4.63±1.3 vs.), order not stated): 6.0±1.1 ng/mg creatinine | urinary 2,3-dinor 6-keto PGF1α (eicosanoid biosynthesis; PGHS-2 inhibition, mice): suppressed substantially | urinary 2,3-dinor TxB2 (eicosanoid biosynthesis; treatment with PGHS-2 selective inhibitor, mice): unaltered significantly | mean impact on time to occlusion, % of WT value (mice [7]): 56.2%

CS(=O)(=O)Nc1ccc([N+](=O)[O-])cc1Oc1ccccc1 [nimesulide]
urinary PGI-M (Male C57BL/6J mice [8]; nimesulide 40 mg/L in drinking water, chronic, control mice): depressed urinary PGI-M | urinary 2,3-dinor TxB2 excretion (Male C57BL/6J mice [8]; nimesulide, control conditions): failed to suppress | excretion of an isoprostane biomarker of lipid peroxidation (Male C57BL/6J mice [8]; nimesulide, control mice): did not alter excretion | urinary PGI-M (Male C57BL/6J mice [8]; nimesulide, moderate and severe reduction in flow): depressed PGI-M to a similar degree | oxidant stress, urinary 8,12-iso-iPF2α-VI (Male C57BL/6J mice [8]; [12]): markedly augmented | platelet activation, urinary 2,3-dinor TxB2 excretion (Male C57BL/6J mice [8]; [12]): markedly augmented | lumen diameter and external elastic lamina diameter of RCs or LCs (Male C57BL/6J mice [9]; control mice): did not itself affect | flow dependent reduction in vessel size (luminal and EEL diameter) (Male C57BL/6J mice [9]; moderate or severe flow reduction): failed to alter | neointimal area, intimal hyperplastic response in LC (Male C57BL/6J mice [9]; severe flow reduction): markedly augmented the intimal hyperplastic response | blood flow in the LC, nimesulide vs vehicle (Male C57BL/6J mice [10]): marked reduction

Cc1ccc(-c2cc(C(F)(F)F)nn2-c2ccc(S(N)(=O)=O)cc2)cc1 [celecoxib]
blood pressure compared to WT controls (mice [11]): elevated
